{"source": "ChEMBL document CHEMBL3272159", "about": "“Synthesis and antihypertensive activity of 1-amino-3,4-dihydroisoquinolines” (1977)", "data": [{"tested_on": "Rattus norvegicus", "assay": "Antihypertensive activity in po dosed renal hypertensive rat assessed as dose required to produce lowering of blood pressure to <= 130 mm after 2 to 24 hrs by photoelectric tensometric analysis", "type": "functional", "units": {"ED50": "mg/kg"}, "values": [{"smiles": "COc1cc(/C=N/NC2=NCCc3ccccc32)cc(OC)c1O.Cl", "ED50": "> 50"}, {"smiles": "NNC1=NCCc2ccccc21", "ED50": 30}, {"smiles": "F[B-](F)(F)F.[NH3+]NC1=NCC(O)c2ccccc21", "note": "(stereo unspecified)", "ED50": "> 50"}, {"smiles": "Cl.NC1=NCCc2ccccc21", "ED50": "> 50"}, {"smiles": "CCCCCCNC1=NCCc2ccccc21.O=S(=O)(O)O", "ED50": "> 50"}, {"smiles": "CN(C)CCNC1=NCCc2ccccc21.Cl", "ED50": "> 50"}, {"smiles": "O=S(=O)(O)O.c1ccc2c(c1)CCN=C2NCc1ccncc1", "ED50": "> 50"}, {"smiles": "COc1ccc(CCNC2=NCCc3ccccc32)cc1OC.O=S(=O)(O)O", "ED50": "> 50"}, {"smiles": "O=S(=O)(O)O.c1ccc2c(c1)CCN=C2NCCc1ccc2c(c1)OCO2", "ED50": "> 50"}, {"smiles": "Nc1ccc(CCNC2=NCCc3ccccc32)cc1Cl.O=S(=O)(O)O", "ED50": "> 50"}, {"smiles": "COc1cc(CCNC2=NCCc3ccccc32)cc(OC)c1OC.O=S(=O)(O)O", "ED50": "> 50"}, {"smiles": "Cl.Oc1ccc(CCNC2=NCCc3ccccc32)cc1O", "ED50": "> 50"}, {"smiles": "CCN(CC)CCOc1ccc(CNC2=NCCc3ccccc32)cc1.O=S(=O)(O)c1cccc2c(S(=O)(=O)O)cccc12", "ED50": "> 50"}, {"smiles": "COc1ccc(NC2=NCCc3ccccc32)cc1", "ED50": "> 50"}, {"smiles": "Cl.c1ccc2c(c1)CCN=C2N1CCCCC1", "ED50": "> 50"}, {"smiles": "O=S(=O)(O)c1cccc2c(S(=O)(=O)O)cccc12.c1ccc(CONC2=NCCc3ccccc32)cc1", "ED50": "> 50"}, {"smiles": "CN(C)NC1=NCCc2ccccc21.Cl", "ED50": "> 50"}, {"smiles": "CC(C)=NNC1=NCCc2ccccc21.O=S(=O)(O)O", "ED50": 15}, {"smiles": "CCCC/C=N/NC1=NCCc2ccccc21.Cl", "ED50": "> 50"}, {"smiles": "C/C=N/NC1=NCCc2ccccc21.O=S(=O)(O)O", "ED50": 15}, {"smiles": "O=S(=O)(O)O.c1ccc2c(c1)CCN=C2NN=C1CCCCC1", "ED50": "> 50"}, {"smiles": "C/C=C/C(C)=N\\NC1=NCCc2ccccc21.O=S(=O)(O)O", "ED50": "> 50"}, {"smiles": "C(=N\\NC1=NCCc2ccccc21)/c1ccccc1.Cl", "ED50": "> 50"}, {"smiles": "COc1cccc(/C=N/NC2=NCCc3ccccc32)c1OC.Cl", "ED50": "> 50"}, {"smiles": "CC1Cc2ccccc2C(NN)=N1.Cl", "note": "(stereo unspecified)", "ED50": 40}, {"smiles": "NNc1nncc2ccccc12", "note": "[HYDRALAZINE]", "ED50": 10}]}]}
